Assay results published in patent US20020040062A1, “Protein kinase C activators and their use in decreasing expression of cell antigens” (The Trustees of Columbia University, priority 1993, published 2002).
Where two headings read alike, the source gives them in different places. Marks after values point to notes of the source that are not given here.

Tests used:
HLA Class I = experiment: Northern blotting, steady-state HLA Class I mRNA in T47D cells; assay type: cell-based, human; conditions: 72 hr; for increase in HLA class I antigen mRNA levels: 500 units/ml IFN-α or IFN-β, 50 units/ml IFN-γ, 0.1 μg/ml TPA or MEZ, densitometry
Description: FIG. 3: Effect of interferon, ADMB, TPA and MEZ, alone and in combination with H-7, on steady-state mRNA levels of HLA Class I antigens, HLA Class II-DRβ antigen, c-erbB-2, ICAM-1 and GAPDH in T47D human breast carcinoma cells. […] Cultures were also grown in the presence of 0.1 μg/ml of H-7 for 72 hr with and without the additional compounds indicated above. Total cytoplasmic RNA was isolated and processed as described in “Detailed Description Of The Invention.” Control: CON; recombinant human leukocyte interferon-A: IFN-αA; recombinant human fibroblast interferon: IFN-β; recombinant human immune interferon: IFN-γ; ADMB; 3-(N-acetylamino)-5-(N-decyl-N-methylamino)-benzyl alcohol; TPA; 12-0-tetradecanoyl-phorbol-13-acetate; MEZ; mezerein; H-7: (1-(5-isoquinolinesulfonyl)-2-methylpiperazine dihydrochloride.
Steady-state levels of HLA Class I, HLA Class II-DRβ, c-erbB-2 and ICAM-I mRNA in control and treated T47D cells were determined by Northern blotting analysis of total cytoplasmic RNA probed with appropriate ^32P-labeled gene probes as previously described. Northern blots were also probed with a ^32P-labeled glyceraldehyde phosphate dehydrogenase (GAPDH) gene probe to verify equal […] under various experimental conditions. Following hybridization, the filters were washed and exposed for autoradiography.

ICAM-1 = experiment: FACS analysis of ICAM-1 surface expression in T47D cells; assay type: cell-based, human; conditions: 72 hr; for ICAM-1 level of upregulation versus untreated control cells (equivalent to 1.0): presence or absence of 0.1 μg/ml H-7; for ICAM-1 relative increase in expression versus untreated controls (equivalent to 1.0): presence or absence of 1.0 μg/ml H-7
Source text: IgG1 murine monoclonal antibody Cu18 and Cu46 recognize two different epitopes of a highly restricted breast carcinoma associated glycoprotein of Mr 225,000 to 250,000 (BCA 225). This TAA is expressed intracytoplasmically and on the membrane of 94% of breast tumors tested and in the T47D human breast carcinoma cell line. BCA 225 is shed into the culture medium by T47D cells and into the sera of breast cancer patients. IgG2a monoclonal antibody L243 (anti HLA Class II-DR) recognizes a monomorphic HLA Class II-DR-α epitope (ATCC M355). Monoclonal antibody CL203.4 [40], which recognizes ICAM-I, was kindly provided by Dr. S. Ferrone, New York Medical College, NY. The c-erbB-2 monoclonal antibody which recognizes the extracellular domain of c-erbB-2 was obtained from Triton Biosciences, Inc., Alamedia, Calif. Monoclonal antibodies Cu18 and Cu46 were used at 0.05 μg/ml and monoclonal antibodies interacting with HLA Class II-DR, ICAM-1 and c-erbB-2 were used at 10 μg/ml. For each experiment, isotype matched control backgrounds (IgG for Cu18, Cu46 and ICAM-1, IgG2a for HLA Class Ii and IgG2b for c-erbB-2) were subtracted from the experimental results. Background from antimouse IgG FITC antibody was also subtracted from experimental results. Applicants never observed backgrounds higher than 2% of total cells for isotypic mouse IgG or higher than 5% for antimouse IgG FITC.
(§1) T47D cells treated with the various compounds were analyzed by flow cytometry using appropriate monoclonal antibody concentrations as described previously. Briefly, 1×10^5 cells were incubated with the test antibody for 30 min at 4° C., washed 3× with PBS and incubated with a goat a mouse F (ab)2 FITC conjugated test antibody at a 1:40 dilution for 30 min at 4° C. Cells were then washed 3× with PBS and analyzed on a FACStar (Beckon Dickinson, Mountain View, Calif.) or a Coulter Epics IV FACS (Coulter, Hialeah, Fla.). Results are expressed as mean fluorescence intensity (MFI) units which were determined as described previously. MFI=(mean channel fluorescence in fluorescence positive antibody-binding cells×% of fluorescence positive antibody-binding cells)−(mean channel fluorescence in unstained cells×% of fluorescence positive cells in the unstained population). All studies were performed a minimum of three or four times with duplicate samples in each experiment. Replicate samples within individual experiments varied by ≦10% and variation between experiments were generally ≦20%.

T47D cells = experiment: Dose-range and time-course of antigenic enhancement in T47D cells and effect of H-7; assay type: cell-based, human
Description: as §1, with “experiment.” for “experiment. Replicate samples within individual experiments varied by ≦10% and variation between experiments were generally ≦20%.”

CA19.9 = experiment: FACS analysis of CA19.9 (MoAb B67.4) in WiDr human colon carcinoma cells; assay type: cell-based
Description: (§2) Cells were plated in 10 cm plates, media was changed 24 hours later with no addition (control) or addition of the indicated compounds and cells were incubated at 37° C. for the indicated time (72 or 96 hours). Cells were resuspended using 10× EDTA and antigen expression was determined as described (Leon, Mesa-Tejada, Gutierrez, Estabrook, Greiner, Schlom & Fisher: Anticancer Res. 9:1639-1648, 1989; Leon, Gutierrez, Jiang, Estabrook, Waxman & Fisher: Cancer Immunol. Immmunother. 35:315-324, 1992).

HLA-DR = experiment: FACS analysis of HLA-DR (MoAb L243) in WiDr human colon carcinoma cells; assay type: cell-based
Description: as §2

[1] = 0.1 μg/ml TPA or MEZ, presence or absence of 0.1 μg/ml H-7, FACStar
[2] = T47D cells, preliminary studies, data not shown
[3] = 72 Hour Treatment, MEZ 100 ng/ml, IFN-γ 100 U/ml
[4] = 96 Hour Treatment, MEZ 100 ng/ml, IFN-γ 100 U/ml
[5] = 500 units/ml IFN-β or 50 units/ml IFN-γ
[6] = 500 units/ml IFN-β or 50 units/ml IFN-γ, presence or absence of 1.0 μg/ml H-7, Coulter Epics IV FACS
[7] = 72 Hour Treatment, ADMB 0.01 μg/ml
[8] = 72 Hour Treatment, ADMB 0.1 μg/ml
[9] = 72 Hour Treatment, ADMB 1.0 μg/ml
[10] = 96 Hour Treatment, ADMB 0.01 μg/ml
[11] = 96 Hour Treatment, ADMB 0.1 μg/ml
[12] = 96 Hour Treatment, ADMB 1.0 μg/ml

## CCCCCCCCCCCCCC(=O)O[C@@H]1[C@@H](C)[C@@]2(O)[C@@H](C=C(CO)C[C@]3(O)C(=O)C(C)=C[C@@H]23)[C@H]2C(C)(C)[C@]12OC(C)=O [TPA, 12-0-tetradecanoyl-phorbol-13-acetate]
HLA Class I
  increase in HLA class I antigen mRNA levels: 1.3 fold
ICAM-1; 0.1 μg/ml TPA or MEZ
  ICAM-1 level of upregulation versus untreated control cells (equivalent to 1.0): (3.0)
ICAM-1; [1]
  Antigenic Expression (MFI) ICAM-1: 63,175 MFI
T47D cells
  most effective dose inducing upregulation of BCA 225, HLA Class II antigens, ICAM-1 and c-erbB-2: 0.1 µg/mL

## C=C(C)[C@@]12O[C@@]3(c4ccccc4)O[C@@H]1[C@@H]1[C@@H]4O[C@]4(CO)[C@@H](O)[C@]4(O)C(=O)C(C)=C[C@H]4[C@@]1(O3)[C@H](C)[C@H]2OC(=O)/C=C/C=C/c1ccccc1 [MEZ, mezerein]
HLA Class I
  increase in HLA class I antigen mRNA levels: 1.75 fold
ICAM-1; 0.1 μg/ml TPA or MEZ
  ICAM-1 level of upregulation versus untreated control cells (equivalent to 1.0): (4.1)
ICAM-1; [1]
  Antigenic Expression (MFI) ICAM-1: 85,745 MFI
T47D cells; [2]
  most effective dose inducing upregulation of BCA 225, HLA Class II antigens, ICAM-1 and c-erbB-2: 0.1 µg/mL
CA19.9; [3]
  Monoclonal Antibody Binding (MFI) MoAb B67.4 (CA19.9): 1914* MFI
CA19.9; [4]
  Monoclonal Antibody Binding (MFI) MoAb B67.4 (CA19.9): 4784* MFI
HLA-DR; [3]
  Monoclonal Antibody Binding (MFI) MoAb L243 (HLA-DR): 1120* MFI
HLA-DR; [4]
  Monoclonal Antibody Binding (MFI) MoAb L243 (HLA-DR): 2129* MFI

## CC1CNCCN1S(=O)(=O)c1cccc2cnccc12.Cl.Cl (stereo not shown) [H-7, 1-(5-isoquinolinesulfonyl)-2-methylpiperazine dihydrochloride]
HLA Class I; 0.1 μg/ml H-7
  alteration of HLA class I mRNA levels by H-7: ≤ 1.2 fold
ICAM-1; 0.1 μg/ml TPA or MEZ
  ICAM-1 level of upregulation versus untreated control cells (equivalent to 1.0): (1.0)
ICAM-1; [1]
  Antigenic Expression (MFI) ICAM-1: 21,538 MFI
ICAM-1; [5]
  ICAM-1 relative increase in expression versus untreated controls (equivalent to 1.0): 1.0
ICAM-1; [6]
  Antigenic Expression (MFI) ICAM-1: 54,080 MFI
T47D cells; T47D cells, 1.0 μg/ml H-7
  effect of H-7 on enhancement of BCA 225, HLA Class II antigens and ICAM-1 expression by IFN-β or IFN-γ: did not inhibit
T47D cells; T47D cells, simultaneous exposure to 0.1 μg/ml H-7
  effect of H-7 on increased antigenic expression induced by TPA, MEZ or ADMB: inhibited

## CCCCCCCCCCN(C)c1cc(CO)cc(NC(C)=O)c1 [ADMB, 3-(N-acetylamino)-5-(N-decyl-N-methylamino)-benzyl alcohol]
T47D cells; [2]
  most effective dose inducing upregulation of BCA 225, HLA Class II antigens, ICAM-1 and c-erbB-2: 0.1 µg/mL
CA19.9; [7]
  Monoclonal Antibody Binding (MFI) MoAb B67.4 (CA19.9): 1136 MFI
CA19.9; [8]
  Monoclonal Antibody Binding (MFI) MoAb B67.4 (CA19.9): 1172 MFI
CA19.9; [9]
  Monoclonal Antibody Binding (MFI) MoAb B67.4 (CA19.9): 1400* MFI
CA19.9; [10]
  Monoclonal Antibody Binding (MFI) MoAb B67.4 (CA19.9): 1512 MFI
CA19.9; [11]
  Monoclonal Antibody Binding (MFI) MoAb B67.4 (CA19.9): 2028* MFI
CA19.9; [12]
  Monoclonal Antibody Binding (MFI) MoAb B67.4 (CA19.9): 2417* MFI
HLA-DR; [7]
  Monoclonal Antibody Binding (MFI) MoAb L243 (HLA-DR): 390 MFI
HLA-DR; [8]
  Monoclonal Antibody Binding (MFI) MoAb L243 (HLA-DR): 317 MFI
HLA-DR; [9]
  Monoclonal Antibody Binding (MFI) MoAb L243 (HLA-DR): 486* MFI
HLA-DR; [10]
  Monoclonal Antibody Binding (MFI) MoAb L243 (HLA-DR): 434 MFI
HLA-DR; [11]
  Monoclonal Antibody Binding (MFI) MoAb L243 (HLA-DR): 615* MFI
HLA-DR; [12]
  Monoclonal Antibody Binding (MFI) MoAb L243 (HLA-DR): 806* MFI

B1: IFN-β: recombinant human fibroblast interferon with a serine substituted for a cysteine at position 17 (protein, UniProt P01574 22-187, looked up, variant C17S)
Interferon beta: MSYNLLGFLQRSSNFQSQKLLWQLNGRLEYCLKDRMNFDIPEEIKQLQQFQKEDAALTIYEMLQNIFAIFRQDSSSTGWNETIVENLLANVYHQINHLKTVLEEKLEKEDFTRGKLMSSLHLKRYYGRILHYLKAKEYSHCAWTIVRVEILRNFYFINRLTGYLRN
HLA Class I
  increase in HLA class I antigen mRNA levels: 2.1 fold
ICAM-1; [5]
  ICAM-1 relative increase in expression versus untreated controls (equivalent to 1.0): 1.8
ICAM-1; [6]
  Antigenic Expression (MFI) ICAM-1: 97,013 MFI

B2: IFN-γ: recombinant human immune interferon produced in Escherichia coli (protein, UniProt P01579 24-161, looked up)
Interferon gamma: QDPYVKEAENLKKYFNAGHSDVADNGTLFLGILKNWKEESDRKIMQSQIVSFYFKLFKNFKDDQSIQKSVETIKEDMNVKFFNSNKKKRDDFEKLTNYSVTDLNVQRKAIHELIQVMAELSPAAKTGKRKRSQMLFRG
HLA Class I
  increase in HLA class I antigen mRNA levels: 1.8 fold
ICAM-1; [5]
  ICAM-1 relative increase in expression versus untreated controls (equivalent to 1.0): 3.5
ICAM-1; [6]
  Antigenic Expression (MFI) ICAM-1: 191,490 MFI
CA19.9; [3]
  Monoclonal Antibody Binding (MFI) MoAb B67.4 (CA19.9): 2271* MFI
CA19.9; [4]
  Monoclonal Antibody Binding (MFI) MoAb B67.4 (CA19.9): 3191* MFI
HLA-DR
  activity in increasing Class II HLA-DR antigens relative to ADMB: approximately 3 ×
HLA-DR; [3]
  Monoclonal Antibody Binding (MFI) MoAb L243 (HLA-DR): 1724* MFI
HLA-DR; [4]
  Monoclonal Antibody Binding (MFI) MoAb L243 (HLA-DR): 2376* MFI
